This is an account of results in patent US8563587B2, “Methods and compositions for treating fish diseases” (HaloSource, Inc., priority 2006, dated 2013).

Data set [1] deals with GlowLite (Hemigrammus erthrozonus). As to the kind of experiment: Fish mortality, MC in ethanol vs MC tablets (Comparative Example 2). Type of data set: in vivo. The following applies: of 11 Glow Lite Tetras, within three hours; 300 mg MC in 95% EtOH/water added at once, 6.0 ppm TAC. How it is done: (§1) A study was performed in which GlowLite (Hemigrammus erthrozonus) and Black Skirt Tetras (Gymnocorymbus ternetzi) were subjected to treatment with MC dissolved in 95% Ethanol (then diluted with water) and another set of the same fish subjected to MC tablets as described in EXAMPLE 1 dosed to equal levels of MC.
(§2) Part 1: Four 5-gallon hexagonal fish tanks were set up as follows: • (a) Hex-1: 5 Black Skirt Tetras (Control Tank—0 ppm TAC) • (b) Hex-2: 5 Black Skirt Tetras (Experimental Tank) • (c) Hex-3: 11 Glow Lite Tetras (Control Tank—0 ppm TAC) • (d) Hex-4: 11 Glow Lite Tetras (Experimental Tank)
(§3) The fish were allowed to acclimate with their surroundings for a period of three days. For the experimental tanks, 300 mg of MC dissolved in 30 g 95% EtOH followed by dilution to 100 mLs total volume with DI water was added. For the control tanks 30 g 95% EtOH diluted to 100 mLs total volume with DI water was added. TAC was measured in the experimental tanks 10 minutes after the addition of the MC solution: HEX-2=7.1 ppm TAC; HEX-4=6.0 ppm TAC. Within three hours, all 11 of the Glow Lite Tetras were dead and 3 out of 5 Black Skirt Tetras were dead.
(§4) Part 2: Three 5-gallon hexagonal fish tanks were set up as follows: • (a) Hex-1: 5 Black Skirt Tetras • (b) Hex-3: 5 Glow Lite Tetras • (c) Hex-4: 5 Glow Lite Tetras
(§5) The fish were allowed to acclimate with their surroundings for a period of 4 hours. All tanks began with 0 ppm TAC. Tablets of MC made from 0.11 g MC pressed with 0.89 g MgSO4, with a ⅝″-diameter tablet as described in EXAMPLE 1 were added to each tank as follows: • (a) Hex-1: 5 Black Skirt Tetras—3 tablets on day 1, 4 tablets on day 2 • (b) Hex-3: 5 Glow Lite Tetras—3 tablets on day 1, 3 tablets on day 2 • (c) Hex-4: 5 Glow Lite Tetras—2 tablets on day 1, 2 tablets on day 2
(§6) Tanks Hex-1 and 2 measured above 6 ppm TAC each day, but took approximately three hours to reach a TAC above 6 ppm. HEX 4 rose to a TAC level of 4.1 ppm TAC within the first day. No fish died throughout the 48-hour experiment.

For data set [2], the system named is Black Skirt Tetras (Gymnocorymbus ternetzi). The description is as above. Type of data set: in vivo. Particulars: 300 mg MC in 95% EtOH/water added at once, 7.1 ppm TAC. How it is done:
as §1, §2, §3, §4, §5, §6

Data set [3] in a line: TAC measured in the fish tanks of Comparative Example 2. Type of data set: physicochemical. Particulars: 10 minutes after addition of 300 mg MC in 95% EtOH diluted to 100 mL. The procedure: as §3, §5, §6

As to `CC1(C)NC(=O)C(C)(C)N1Cl` [MC, 1-Chloro-2,2,5,5-tetramethylimidazolidin-4-one], the dead fish was 11 in data set [1], “the remainder of the Black Skirt Tetras were dead” in data set [2] (within 24 hours) and 3 out of 5 in data set [2] (within three hours). In addition, the “TAC in experimental tank” value in data set [3] (HEX-2 (Black Skirt Tetras)) came out at 7.1 ppm TAC; in data set [3] (HEX-4 (Glow Lite Tetras)) it was 6.0 ppm TAC.
